These results are taken from US9067934B2, “Bicyclic pyridinones” (Pfizer Inc., priority 2011, dated 2015).

The structures appear in SMILES notation. Counter-ions that a name gives are not always drawn.

The first assay has as its system production of amyloid beta protein Aβ(1-42) (γ-secretase) in human WT-APP overexpressing CHO cells. The assay is described as follows: Cell-Based γ-Secretase Assay with ELISA Readout. The settings on record: CHO, 24 h, read-out: Aβ 42B IC50 (Geometric Mean of 2-6 Determinations). In outline: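 Human WT-APP-overexpressing CHO cells were pre-cultured 24 h at 37° C, then exposed to compounds (eleven-point half-log series, 1% final DMSO) for ~24 h. Aβ(1-42) in conditioned media was captured with Aβ(1-42)-specific antibody and detected with Eu-labeled 6e10 by DELFIA TRF. IC50 by nonlinear regression against min/max inhibition controls.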
A general note: ELISA stands for enzyme-linked immunosorbent assay.
A word on the IC50: it is the point on the concentration scale where inhibition reaches its midpoint. As for `Cc1cn(-c2ccc3n(c2=O)CCN(CCOc2ccccc2[Si](C)(C)C)C3=O)cn1` [Example 121, 7-(4-methyl-1H-imidazol-1-yl)-2-{2-[2-(trimethylsilyl)phenoxy]ethyl}-3,4-dihydro-2H-pyrido[1,2-a]pyrazine-1,6-dione], the IC50 is 30.2 nM.

The same assay, now with this note: human WT-APP overexpressing CHO cells, ~24 hours at 37° C., Aβ(1-42) ELISA; footnotes: a = geometric mean of >15 determinations, b = single determination, c = geometric mean of 7-15 determinations; read-out: Aβ 42B IC50 (Geometric Mean of 2-6 Determinations).
Take `Cc1cn(-c2ccc3n(c2=O)CCN(CCOc2ccc(F)c4occc24)C3=O)cn1` [Example 11, 2-{2-[(7-fluoro-1-benzofuran-4-yl)oxy]ethyl}-7-(4-methyl-1H-imidazol-1-yl)-3,4-dihydro-2H-pyrido[1,2-a]pyrazine-1,6-dione]: the IC50 came out at 536 nM.
The same measure, in the same setting: next, `Cc1cn(-c2ccc3n(c2=O)CCN(CCOc2ccc(F)c4oc5ccccc5c24)C3=O)cn1` [Example 87, 2-{2-[(4-fluorodibenzo[b,d]furan-1-yl)oxy]ethyl}-7-(4-methyl-1H-imidazol-1-yl)-3,4-dihydro-2H-pyrido[1,2-a]pyrazine-1,6-dione]: 22.8 nM; `Cc1cn(-c2ccc3n(c2=O)CCN(CCCOc2ccccc2C(C)(C)C)C3=O)cn1` [Example 32, 2-[3-(2-tert-butylphenoxy)propyl]-7-(4-methyl-1H-imidazol-1-yl)-3,4-dihydro-2H-pyrido[1,2-a]pyrazine-1,6-dione, trifluoroacetate salt]: 143 nM; `Cc1cn(-c2ccc3n(c2=O)CCN(CCOc2ccccc2-c2ccc4c(c2)OCO4)C3=O)cn1` [Example 91, 2-{2-[2-(1,3-benzodioxol-5-yl)phenoxy]ethyl}-7-(4-methyl-1H-imidazol-1-yl)-3,4-dihydro-2H-pyrido[1,2-a]pyrazine-1,6-dione, formate salt]: 120 nM.
The same measure, in the same setting: next, `Cc1cn(-c2ccc3n(c2=O)CCN(CCOc2cccc4nc(C(F)(F)F)sc24)C3=O)cn1` [Example 97, 7-(4-methyl-1H-imidazol-1-yl)-2-(2-{[2-(trifluoromethyl)-1,3-benzothiazol-7-yl]oxy}ethyl)-3,4-dihydro-2H-pyrido[1,2-a]pyrazine-1,6-dione, trifluoroacetate salt]: 21.3 nM.
The same measure, in the same setting: next, `Cc1cn(-c2ccc3n(c2=O)CCN(CCOc2ccc(Cl)cc2-c2ccon2)C3=O)cn1` [Example 43, 2-[2-(4-chloro-2-isoxazol-3-ylphenoxy)ethyl]-7-(4-methyl-1H-imidazol-1-yl)-3,4-dihydro-2H-pyrido[1,2-a]pyrazine-1,6-dione, trifluoroacetate salt]: 283 nM; `Cc1cn(-c2ccc3n(c2=O)CCN(CCOc2ncc(Cl)c4ccccc24)C3=O)cn1` [Example 68, 2-{2-[(4-chloroisoquinolin-1-yl)oxy]ethyl}-7-(4-methyl-1H-imidazol-1-yl)-3,4-dihydro-2H-pyrido[1,2-a]pyrazine-1,6-dione, trifluoroacetate salt]: 59.4 nM; `Cc1cn(-c2ccc3n(c2=O)CCN(CCOc2ccccc2-c2coc(C)n2)C3=O)cn1` [Example 41, 7-(4-methyl-1H-imidazol-1-yl)-2-{2-[2-(2-methyl-1,3-oxazol-4-yl)phenoxy]ethyl}-3,4-dihydro-2H-pyrido[1,2-a]pyrazine-1,6-dione, trifluoroacetate salt]: 156 nM.
For the molecule `Cc1cn(-c2ccc3n(c2=O)CCN([C@@H](C)COc2ccc(F)cc2[C@@H](C)C(F)(F)F)C3=O)cn1` [Example 118, 2-[(2S)-1-{4-Fluoro-2-[(2R)-1,1,1-trifluoropropan-2-yl]phenoxy}propan-2-yl]-7-(4-methyl-1H-imidazol-1-yl)-3,4-dihydro-2H-pyrido[1,2-a]pyrazine-1,6-dione], the half-inhibitory concentration (IC50) was less than 6.64 nM.
The same measure, in the same setting: next, `Cc1cn(-c2ccc3n(c2=O)CCN(CCOc2ccnc4ccc(C(F)(F)F)cc24)C3=O)cn1` [Example 69, 7-(4-methyl-1H-imidazol-1-yl)-2-(2-{[6-(trtfluoromethyl)quinolin-4-yl]oxy}ethyl)-3,4-dihydro-2H-pyrido[1,2-a]pyrazine-1,6-dione]: 58.3 nM.
Same read-out and setting: then `Cc1cn(-c2ccc3n(c2=O)CCN(CCOc2cccc4c2CCCC4)C3=O)cn1` [Example 14, 7-(4-methyl-1H-imidazol-1-yl)-2-[2-(5,6,7,8-tetrahydronaphthalen-1-yloxy)ethyl]-3,4-dihydro-2H-pyrido[1,2-a]pyrazine-1,6-dione], with 197 nM; and `Cc1cn(-c2ccc3n(c2=O)CCN(CCOc2ccccc2-c2ccccc2)C3=O)cn1` [Example 34, 2-[2-(biphenyl-2-yloxy)ethyl]-7-(4-methyl-1H-imidazol-1-yl)-3,4-dihydro-2H-pyrido[1,2-a]pyrazine-1,6-dione, trifluoroacetate salt], with 262 nM.
The same measure, in the same setting: then `Cc1cn(-c2ccc3n(c2=O)CCN(CCOc2ccc(F)cc2C(C)(C)C(F)(F)F)C3=O)cn1` [Example 105, 2-{2-[4-fluoro-2-(1,1,1-trifluoro-2-methylpropan-2-yl)phenoxy]ethyl}-7-(4-methyl-1H-imidazol-1-yl)-3,4-dihydro-2H-pyrido[1,2-a]pyrazine-1,6-dione], with 25.2 nM; and `Cc1ccc(-c2ccccc2OCCN2CCn3c(ccc(-n4cnc(C)c4)c3=O)C2=O)cc1` [Example 93, 2-{2-[(4′-methylbiphenyl-2-yl)oxy]ethyl}-7-(4-methyl-1H-imidazol-1-yl)-3,4-dihydro-2H-pyrido[1,2-a]pyrazine-1,6-dione, formate salt], with 75.8 nM.
Regarding `Cc1cn(-c2ccc3n(c2=O)CCN(CCOc2ccc(F)cc2-n2ccc(C(F)(F)F)n2)C3=O)cn1` [Example 85, 2-(2-{4-fluoro-2-[3-(trifluoromethyl)-1H-pyrazol-1-yl]phenoxy}ethyl)-7-(4-methyl-1H-imidazol-1-yl)-3,4-dihydro-2H-pyrido[1,2-a]pyrazine-1,6-dione], the IC50 amounted to 106 nM.
Same read-out and setting: next, `O=C1c2ccc(-n3cnc(Cl)c3)c(=O)n2CCN1CCOc1ccc(Cl)cc1C(F)(F)F` [Example 113, 7-(4-chloro-1H-imidazol-1-yl)-2-{2-[4-chloro-2-(trifluoromethyl)phenoxy]ethyl}-3,4-dihydro-2H-pyrido[1,2-a]pyrazine-1,6-dione]: 292 nM; `Cc1cn(-c2ccc3n(c2=O)CCN(CCOc2ccccc2-c2sncc2C)C3=O)cn1` [Example 37, 7-(4-methyl-1H-imidazol-1-yl)-2-{2-[2-(4-methylisothiazol-5-yl)phenoxy]ethyl}-3,4-dihydro-2H-pyrido[1,2-a]pyrazine-1,6-dione, trifluoroacetate salt]: 219 nM; `COc1ccc2cccc(OCCN3CCn4c(ccc(-n5cnc(C)c5)c4=O)C3=O)c2c1` [Example 7, 2-{2-[(7-methoxy-1-naphthyl)oxy]ethyl}-7-(4-methyl-1H-imidazol-1-yl)-3,4-dihydro-2H-pyrido[1,2-a]pyrazine-1,6-dione]: 42 nM.
As to `Cc1cn(-c2ccc3n(c2=O)CCN(CCOc2ccccc2-c2ccc(F)cc2)C3=O)cn1` [Example 89, 2-{2-[(4′-fluorobiphenyl-2-yl)oxy]ethyl}-7-(4-methyl-1H-imidazol-1-yl)-3,4-dihydro-2H-pyrido[1,2-a]pyrazine-1,6-dione, formate salt], the half-inhibitory concentration (IC50) stood at 101 nM.
Take `Cc1cn(-c2ccc3n(c2=O)CCN(CCOc2cc(C(F)(F)F)nc4c(Cl)cccc24)C3=O)cn1` [Example 63, 2-(2-{[8-chloro-2-(trifluoromethyl)quinolin-4-yl]oxy}ethyl)-7-(4-methyl-1H-imidazol-1-yl)-3,4-dihydro-2H-pyrido[1,2-a]pyrazine-1,6-dione]: the IC50 was 76.6 nM.
The same measure, in the same setting: next, `Cc1cn(-c2ccc3n(c2=O)CCN(CCOc2ccccc2-c2nc(C(F)(F)F)ns2)C3=O)cn1` [Example 104, 7-(4-methyl-1H-imidazol-1-yl)-2-(2-{2-[3-(trifluoromethyl)-1,2,4-thiadiazol-5-yl]phenoxy}ethyl)-3,4-dihydro-2H-pyrido[1,2-a]pyrazine-1,6-dione]: 7.2 nM.
On the same count and under the same terms, next, `Cc1cn(-c2ccc3n(c2=O)CCN(CCOc2ccc(F)c(Cl)c2Cl)C3=O)cn1` [Example 23, 2-[2-(2,3-dichloro-4-fluorophenoxy)ethyl]-7-(4-methyl-1H-imidazol-1-yl)-3,4-dihydro-2H-pyrido[1,2-a]pyrazine-1,6-dione]: 173 nM.
Still for that read-out and setting: next, `Cc1cn(-c2ccc3n(c2=O)CCN(CCOc2nsc4ccc(Cl)cc24)C3=O)cn1` [Example 77, 2-{2-[(5-chloro-1,2-benzisothiazol-3-yl)oxy]ethyl}-7-(4-methyl-1H-imidazol-1-yl)-3,4-dihydro-2H-pyrido[1,2-a]pyrazine-1,6-dione]: 66.2 nM; `Cc1cn(-c2ccc3n(c2=O)CCN(CCOc2ccc(Cl)cc2C(C)(C)O)C3=O)cn1` [Example 44, 2-{2-[4-chloro-2-(1-hydroxy-1-methylethyl)phenoxy]ethyl}-7-(4-methyl-1H-imidazol-1-yl)-3,4-dihydro-2H-pyrido[1,2-a]pyrazine-1,6-dione, trifluoroacetate salt]: 142 nM; `COc1ccc2c(OCCN3CCn4c(ccc(-n5cnc(C)c5)c4=O)C3=O)cccc2c1` [Example 78, 2-{2-[(6-methoxy-1-naphthyl)oxy]ethyl}-7-(4-methyl-1H-imidazol-1-yl)-3,4-dihydro-2H-pyrido[1,2-a]pyrazine-1,6-dione]: 87.5 nM.
As for `Cc1ncc(-c2ccc3n(c2=O)CCN(CCOc2cccc4ccc(F)cc24)C3=O)o1` [Example 2, 2-{2-[(7-Fluoronaphthalen-1-yl)oxy]ethyl}-7-(2-methyl-1,3-oxazol-5-yl)-3,4-dihydro-2H-pyrido[1,2-a]pyrazine-1,6-dione], the IC50 was 434 nM.
Same read-out and setting: next, `Cc1cn(-c2ccc3n(c2=O)CCN(C(C)C(C)Oc2ccccc2S(F)(F)(F)(F)F)C3=O)cn1` (single isomer, unassigned) [Example 124, 7-(4-methyl-1H-imidazol-1-yl)-2-{3-[2-(pentafluoro-λ^6-sulfanyl)phenoxy]butan-2-yl}-3,4-dihydro-2H-pyrido[1,2-a]pyrazine-1,6-dione]: 2310 nM.
